We go through 54 compounds from ChEMBL document CHEMBL1156124, “Assessment of the putative binding conformation of a pyrazolopyridine class of inhibitors of MAPKAPK2 using computational studies” (Eur J Med Chem, 2010).

In the assay the target is MAP kinase-activated protein kinase 2 (Homo sapiens) (UniProt P49137). In words: Inhibition of MK2.

SMILES strings stand for the structures. Where only a bound is given, the exact number is not on record here.

Chain of MAP kinase-activated protein kinase 2 (Homo sapiens) (P49137 whole entry, looked up): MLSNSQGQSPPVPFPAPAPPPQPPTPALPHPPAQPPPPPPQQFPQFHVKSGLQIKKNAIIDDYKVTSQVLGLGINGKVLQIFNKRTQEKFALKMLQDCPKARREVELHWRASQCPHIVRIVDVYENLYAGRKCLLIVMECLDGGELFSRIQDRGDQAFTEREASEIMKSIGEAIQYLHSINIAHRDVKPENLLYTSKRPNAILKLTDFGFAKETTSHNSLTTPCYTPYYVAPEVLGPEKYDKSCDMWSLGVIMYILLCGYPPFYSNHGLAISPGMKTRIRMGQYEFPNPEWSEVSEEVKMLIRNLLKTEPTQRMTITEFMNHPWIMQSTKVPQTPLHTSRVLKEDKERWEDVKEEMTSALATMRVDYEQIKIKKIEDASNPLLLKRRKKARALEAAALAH

For the compound `COCCOc1ccc(Nc2c(C)c(N[C@H]3CCNC3)c(C#N)c3ccnn23)cc1`, the Activity was 0.2 µM.

Compound `CCOc1ccc(Nc2c(C)c(N[C@H]3CCCNC3)c(C#N)c3ccnn23)cc1` showed an Activity of less than 0.2 µM.

Regarding `CCOc1ccc(Nc2c(C)c(NCCC3CCCN3)c(C#N)c3ccnn23)cc1` (centres undefined), the Activity was 1 µM.

Compound `CCOc1ccc(Nc2c(C)c(NCC3CCNC3)c(C#N)c3ccnn23)cc1` (centres undefined) came in with an Activity of 1 µM.

In turn, `Cc1c(N[C@H]2CC[C@H](N)CC2)c(C#N)c2ccnn2c1NOc1ccccc1` came in with an Activity of 0.2 µM.

Take `N#Cc1c(N[C@@H]2CCCNC2)cc(Nc2ccc(-c3ccccc3)cc2)n2nccc12`: the Activity came to 0.2 µM.

Take `CCOc1ccc(Nc2c(CC(C)C)c(N[C@@H]3CCCNC3)c(C#N)c3ccnn23)cc1`: the Activity was less than 0.2 µM.

`CCOc1ccc(Nc2c(C)c(N[C@H]3CC[C@H](NCC4CCCCC4)CC3)c(C#N)c3ccnn23)cc1` came in with an Activity of 0.2 µM.

As to `CCOc1ccc(Nc2c(CC)c(N[C@H]3CC[C@H](N)CC3)c(C#N)c3ccnn23)cc1`, the Activity is less than 0.2 µM.

`CCOc1ccc(Nc2c(C)c(NCCC3CCCN3C)c(C#N)c3ccnn23)cc1` (centres undefined) yielded an Activity of 10 µM.

Regarding `CCOc1ccc(Nc2c(CC)c(N[C@@H]3CCCNC3)c(C#N)c3ccnn23)cc1`, the Activity is less than 0.2 µM.

Turning to `CCOc1ccc(Nc2c(C)c(N[C@H]3CC[C@H](NCCc4ccccc4)CC3)c(C#N)c3ccnn23)cc1`, the Activity worked out at 0.2 µM.

Compound `CCOc1ccc(Nc2c(C)c(NC3CNCc4ccccc43)c(C#N)c3ccnn23)cc1` (centres undefined) came in with an Activity of 1 µM.

`c1ccn2nccc2c1` gave an Activity of less than 0.2 µM.

For `CCOc1ccc(Nc2c(C)c(N[C@H]3CC[C@H](NCCCc4ccccc4)CC3)c(C#N)c3ccnn23)cc1`, the Activity worked out at 0.2 µM.

For `CCOc1ccc(Nc2c(C)c(NCCCCCN)c(C#N)c3ccnn23)cc1`, the Activity amounted to 0.2 µM.

`CCOc1ccc(Nc2c(C)c(OC3CCC(N)CC3)nc3ccnn23)cc1` (centres undefined): the Activity stood at 0.2 µM.

Take `CCOc1ccc(Nc2c(C)c(NCC3CCCN3)c(C#N)c3ccnn23)cc1` (centres undefined): the Activity is 1 µM.

Turning to `CCOc1ccc(Nc2c(-c3ccccc3)c(NC3CCCNC3)c(C#N)c3ccnn23)cc1` (centres undefined), the Activity was 0.2 µM.

Consider `CCOc1ccc(Nc2c(C)c(NCCN)c(C#N)c3ccnn23)cc1`, for which the Activity came out at 0.2 µM.

`CCOc1ccc(Nc2c(C)c(N[C@H]3CC[C@H](N)CC3)c(C#N)c3ccnn23)cc1`: the Activity is less than 0.2 µM.

For `COCCOc1ccc(Nc2c(C)c(N[C@H]3CC[C@H](N)CC3)c(C#N)c3ccnn23)cc1`, the Activity is less than 0.2 µM.

As for `CCOc1ccc(Nc2c(C)c(NCCC3CCCCN3)c(C#N)c3ccnn23)cc1` (centres undefined), the Activity was 10 µM.

For the compound `CCOc1ccc(Nc2c(C)c(NC3CCNCC3)c(C#N)c3ccnn23)cc1`, the Activity worked out at 0.2 µM.

`CCOc1ccc(Nc2cc(N[C@@H]3CCCNC3)c(C#N)c3ccnn23)cc1`: the Activity turned out to be 0.2 µM.

In turn, `Cc1c(N[C@H]2CC[C@H](N)CC2)c(C#N)c2ccnn2c1Nc1ccc(-c2ccccc2)cc1` yielded an Activity of less than 0.2 µM.

Turning to `N#Cc1c(N[C@H]2CC[C@H](N)CC2)cc(Nc2nc3ccccc3s2)n2nccc12`, the Activity was 0.2 µM.

`Cc1c(N[C@@H]2CCCNC2)c(C#N)c2ccnn2c1NCc1nc2ccccc2s1` returned an Activity of less than 0.2 µM.

For `NC(=O)n1ncc2ccccc21`, the Activity is less than 150 µM.

On to `CCOc1ccc(Nc2c(C)c(OC3CCCNC3)nc3ccnn23)cc1` (centres undefined), for which the Activity was 1 µM.

Turning to `CCOc1ccc(Nc2c(C3CC3)c(N[C@@H]3CCCNC3)c(C#N)c3ccnn23)cc1`, the Activity worked out at 0.2 µM.

`CCOc1ccc(Nc2c(C)c(N[C@H]3CC[C@H](NCC(C)C)CC3)c(C#N)c3ccnn23)cc1`: the Activity was less than 0.2 µM.

Consider `N#Cc1c(N[C@@H]2CCCNC2)cc(Nc2ccccc2Cl)n2nccc12`, for which the Activity is 0.2 µM.

On to `CCOc1ccc(Nc2c(C)c(NC3CCCCC3N)c(C#N)c3ccnn23)cc1` (centres undefined), for which the Activity came to 10 µM.

Compound `CCCc1c(N[C@@H]2CCCNC2)c(C#N)c2ccnn2c1Nc1ccc(OCC)cc1` displayed an Activity of less than 0.2 µM.

Consider `Cc1c(N[C@@H]2CCCNC2)c(C#N)c2ccnn2c1Nc1nc2ccccc2s1`, for which the Activity is less than 0.2 µM.

In turn, `CCOc1ccc(Nc2c(C3CC3)c(N[C@H]3CC[C@H](N)CC3)c(C#N)c3ccnn23)cc1` yielded an Activity of less than 0.2 µM.

With `CCOc1ccc(Nc2c(C)c(NC3CCC(N)CC3)c(C#N)c3ccnn23)cc1` (centres undefined), the Activity was less than 0.2 µM.

Take `CCOc1ccc(Nc2c(C)c(N[C@@H]3CCCC[C@H]3N)c(C#N)c3ccnn23)cc1`: the Activity turned out to be 10 µM.

Compound `CCOc1ccc(Nc2c(C)c(NC3CCCC(N)C3)c(C#N)c3ccnn23)cc1` (centres undefined) gave an Activity of 1 µM.

The compound `CCOc1ccc(Nc2c(C)c(NC3CCC(NCc4ccccc4)CC3)c(C#N)c3ccnn23)cc1` (centres undefined) had an Activity of 0.2 µM.

In turn, `CCOc1ccc(Nc2c(C)c(OCCN)nc3ccnn23)cc1` registered an Activity of 10 µM.

In turn, `CCOc1ccc(Nc2c(C)c(NCCCNC3CCCCC3)c(C#N)c3ccnn23)cc1` displayed an Activity of 1 µM.

`C=CCc1c(N[C@@H]2CCCNC2)c(C#N)c2ccnn2c1Nc1ccc(OCC)cc1`: the Activity was less than 0.2 µM.

On to `Cc1c(N[C@@H]2CCCNC2)c(C#N)c2ccnn2c1Nc1ccccc1`, for which the Activity is less than 0.2 µM.

As for `CCOc1ccc(Nc2c(C)c(NCCCN)c(C#N)c3ccnn23)cc1`, the Activity amounted to 0.2 µM.

For the compound `CCOc1ccc(Nc2c(C)c(NCCCCCCN)c(C#N)c3ccnn23)cc1`, the Activity was 10 µM.

`N#Cc1c(N[C@H]2CC[C@H](N)CC2)cc(Nc2ccccc2Cl)n2nccc12` came in with an Activity of 0.2 µM.

Compound `CCOc1ccc(Nc2c(C(C)C)c(N[C@H]3CC[C@H](N)CC3)c(C#N)c3ccnn23)cc1` yielded an Activity of less than 0.2 µM.

For `COCCOc1ccc(Nc2c(C)c(N[C@@H]3CCCNC3)c(C#N)c3ccnn23)cc1`, the Activity was less than 0.2 µM.

With `CCOc1ccc(Nc2c(CCO)c(N[C@@H]3CCCNC3)c(C#N)c3ccnn23)cc1`, the Activity was less than 0.2 µM.

For the compound `CCOc1ccc(Nc2c(C)c(NCC3CCCCN3)c(C#N)c3ccnn23)cc1` (centres undefined), the Activity is 1 µM.

`CCOc1ccc(Nc2c(C)c(NCC3CCCNC3)c(C#N)c3ccnn23)cc1` (centres undefined) yielded an Activity of 1 µM.

For `CCOc1ccc(Nc2c(C)c(N[C@H]3CC[C@H](NCc4ccccc4)CC3)c(C#N)c3ccnn23)cc1`, the Activity amounted to 0.2 µM.
